In patent US10561736B1, “Apoptosis inhibitor formulations for prevention of hearing loss” (Spiral Therapeutics, Inc., priority 2019, dated 2020):

What was measured:
rats = experiment: GLP auditory safety study after single IT administration; format: in vivo, rat
Description: Gross observations were recorded, and selected organs were weighed.

HEI-OC1 cells = experiment: release of mitochondrial Cytc in HEI-OC1 cells with CisPt (flow cytometry); format: cell-based; conditions: HEI-OC1 cells, CisPt alone vs pre-incubated with LPT99, flow cytometry
Description: Flow cytometry was also used to characterize the effect of LPT99 in the release of mitochondrial Cytc in HEI-OC1 cells in vitro with CisPt prevention.
The effect of LPT99 on proliferation of non-apoptotic cells was studied. A549 cells were cultured in the presence of LPT99 for up to 6 days; the cell number was monitored by flow cytometry, and doubling time was calculated.

For gentamicin [reference compound], the weight-normalized heart weights (rats; male rats, 400 mg/mL gentamicin, Day 14, vs saline controls) was “statistically significant (p≤0.05) increased weight-normalized heart weights”, the “otoscopic examination of the tympanic membranes (erythema, edema, wounds)” value (rats; rat, single IT, Days 1, 7, 14, vs control) was “increases in otoscopic scores” and the “mortalities, clinical abnormalities, body weight, food intake, clinical pathologies” value (rats; rat, single bilateral IT 30 μL per ear, 14-day study) was “no LPT99- or gentamicin-related mortalities”.
`N.N.[Cl][Pt][Cl]` [CisPt, cisplatin, reference compound] was tested, and the “release of mitochondrial Cytc” value (HEI-OC1 cells) was 28%±6.6%.
